Experimental data published in the supplement of paper PMC10307832.

Assays:
Assay in all cases: relative viability (nuclei count vs DMSO), 5 days (fraction); higher = more cells survive
[1] = compound: CC1=CC=C(C=C1)C(=O)CN2C3=C(CCCC3)SC2=N [Pifithrin_alpha] + C[C@@H](Oc1cc(-c2cnn(C3CCNCC3)c2)cnc1N)c1c(Cl)ccc(F)c1Cl [Crizotinib] (partner 1 µM)
Outline: (§1)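 Medians of duplicate plates are given as relative viability. That measure is the nuclei count in treated wells divided by the count in vehicle wells. Counts were taken on 4× images of lung cancer cell lines in 1536-well plates, 5 days after pin-tool dosing the day after seeding with one drug alone or a fixed anchor-drug dose plus five library-drug doses (not always all listed) in √10 steps.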

[2] = compound: CC1=CC=C(C=C1)C(=O)CN2C3=C(CCCC3)SC2=N [Pifithrin_alpha] + C[C@]1(O)C[C@@H](c2nc(-c3ccc4ccc(-c5ccccc5)nc4c3)c3c(N)nccn32)C1 [Linsitinib] (partner 1 µM)
Outline: as §1

[3] = compound: CC1=CC=C(C=C1)C(=O)CN2C3=C(CCCC3)SC2=N [Pifithrin_alpha] + Cc1nc(NC(=O)N2CCC[C@H]2C(N)=O)sc1-c1ccnc(C(C)(C)C(F)(F)F)c1 [Alpelisib] (partner 2 µM)
Outline: as §1

[4] = compound: CC1=CC=C(C=C1)C(=O)CN2C3=C(CCCC3)SC2=N [Pifithrin_alpha] + O=C(c1cc(Cc2n[nH]c(=O)c3ccccc23)ccc1F)N1CCN(C(=O)C2CC2)CC1 [Olaparib] (partner 8 µM)
Outline: as §1

Row | Cell Line | relative viability ([1]; first compound 1 µM) | relative viability ([1]; first compound 3.162 µM) | relative viability ([1]; first compound 10 µM) | relative viability ([1]; first compound 31.62 µM) | relative viability ([1]; first compound 100 µM) | relative viability ([2]; first compound 1 µM) | relative viability ([2]; first compound 3.162 µM) | relative viability ([2]; first compound 10 µM) | relative viability ([2]; first compound 31.62 µM) | relative viability ([2]; first compound 100 µM) | relative viability ([3]; first compound 1 µM) | relative viability ([3]; first compound 3.162 µM) | relative viability ([3]; first compound 10 µM) | relative viability ([3]; first compound 31.62 µM) | relative viability ([3]; first compound 100 µM) | relative viability ([4]; first compound 1 µM) | relative viability ([4]; first compound 3.162 µM) | relative viability ([4]; first compound 10 µM) | relative viability ([4]; first compound 31.62 µM) | relative viability ([4]; first compound 100 µM)
1 | NCI-H1437 | 1.05 | 0.962 | 0.892 | 0.763 | 1.02 | 1.14 | 1.24 | 0.893 | 0.564 | 0.54 | 1.12 | 1.01 | 0.933 | 0.749 | 0.989 | 0.681 | 0.604 | 0.521 | 0.383 | 0.277
2 | NCI-H1651 | 0.942 | 0.924 | 0.934 | 0.835 | 0.959 | 0.997 | 1.13 | 0.892 | 0.709 | 1.02 | 0.884 | 0.933 | 0.908 | 0.685 | 0.989 | 0.184 | 0.191 | 0.173 | 0.143 | 0.194
3 | NCI-H1666 | 0.665 | 0.63 | 0.549 | 0.474 | 0.316 | 0.69 | 0.599 | 0.534 | 0.521 | 0.448 | 0.771 | 0.577 | 0.527 | 0.479 | 0.352 | 0.72 | 0.673 | 0.657 | 0.641 | 0.648
4 | NCI-H1703 | 0.577 | 0.531 | 0.803 | 0.455 | 1.05 | 0.596 | 0.6 | 0.786 | 0.733 | 0.635 | 0.317 | 0.306 | 0.252 | 0.366 | 0.377 | 0.418 | 0.328 | 0.382 | 0.313 | 0.326
5 | NCI-H1734 | 0.826 | 0.647 | 0.686 | 0.592 | 0.604 | 0.994 | 0.89 | 0.862 | 0.611 | 0.889 | 0.75 | 0.699 | 0.638 | 0.576 | 0.682 | 0.588 | 0.502 | 0.529 | 0.328 | 0.575
6 | NCI-H1755 | 0.858 | 0.78 | 0.771 | 0.634 | 0.864 | 0.935 | 0.991 | 0.905 | 0.802 | 0.969 | 0.99 | 0.93 | 0.942 | 0.75 | 1.02 | 0.789 | 0.747 | 0.734 | 0.544 | 0.73
7 | NCI-H1792 | 0.869 | 0.821 | 0.798 | 0.612 | 0.573 | 0.563 | 0.498 | 0.378 | 0.422 | 0.486 | 0.688 | 0.67 | 0.485 | 0.469 | 0.657 | 0.469 | 0.348 | 0.272 | – | 0.255
8 | NCI-H1915 | 0.867 | 0.979 | 0.912 | – | 1.25 | 1.01 | 1.08 | 1.08 | – | 1.14 | 0.979 | 1.11 | 1.05 | – | 1.12 | 0.245 | 0.267 | 0.249 | – | 0.276
9 | NCI-H1944 | 1.13 | 1.18 | 0.866 | – | 0.958 | 1.18 | 1.23 | 1.11 | – | 1.04 | 0.866 | 0.762 | 0.72 | – | 0.75 | 0.378 | 0.337 | 0.344 | 0.25 | 0.28
10 | NCI-H1975 | 0.881 | 0.8 | 0.659 | 0.537 | 0.611 | 0.948 | 0.707 | 0.643 | 0.733 | 0.523 | 0.58 | 0.445 | 0.385 | 0.346 | 0.299 | 0.676 | 0.437 | 0.374 | 0.467 | 0.354
11 | NCI-H1993 | – | 0.771 | 0.815 | 0.797 | 0.794 | – | 0.669 | 0.741 | 0.684 | 0.714 | – | 0.692 | 0.757 | 0.568 | 0.607 | 1.06 | 1.11 | 0.779 | 0.697 | 0.866
12 | NCI-H2009 | 0.963 | 1.03 | 0.955 | 0.679 | 0.857 | 1.25 | 1.25 | 1.16 | 0.822 | 0.998 | 1.25 | 1.11 | 1.1 | 0.835 | 0.827 | 0.701 | 0.903 | 0.594 | 0.286 | 0.614
13 | NCI-H2023 | 0.505 | 0.501 | 0.381 | 0.3 | 0.37 | 0.674 | 0.511 | 0.63 | 0.46 | 0.476 | 0.589 | 0.396 | 0.454 | 0.289 | 0.367 | 0.514 | 0.455 | 0.318 | 0.301 | 0.244
14 | NCI-H2085 | 0.795 | 0.848 | 0.7 | 0.747 | 0.966 | 0.829 | 0.934 | 0.768 | 0.797 | 0.859 | 0.907 | 0.972 | 0.849 | 0.706 | 0.808 | 0.807 | 0.778 | 0.796 | 0.523 | 0.685
